Test results from ChEMBL document CHEMBL1201862, “PubChem BioAssay data set” (2004).
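Assay format: 96-well plates, 48-hour exposure. GI50: concentration for 50% inhibition of growth.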 Calls of active or inactive are those of the source. No stated cut-off is given here; in the data, active = GI50 up to about 1.1 µM and inactive = higher.

Columns and labels:
Test in all cases: NCI tumour cell line growth inhibition, 48 h
[1] = test system: UO-31
[2] = test system: SK-MEL-2
[3] = test system: HOP-92
[4] = test system: OVCAR-8
[5] = test system: SW-620
[6] = test system: SK-MEL-28
[7] = test system: HT-29
[8] = test system: SK-OV-3
[9] = test system: MCF7
[10] = test system: SR
[11] = test system: DU-145
[12] = test system: A498
[13] = test system: OVCAR-3
[14] = test system: M14
[15] = test system: CCRF-CEM
[16] = test system: SF-268
[17] = test system: ACHN
[18] = test system: HCT-116
[19] = test system: EKVX
[20] = test system: OVCAR-5
[21] = test system: HL-60
[22] = test system: K562
[23] = test system: NCI-H226
[24] = test system: SF-295
[25] = test system: RPMI-8226
[26] = test system: NCI-H23
[27] = test system: MDA-MB-231
[28] = test system: 786-0
[29] = test system: T47D
[30] = test system: U-251
[31] = test system: NCI-H522
[32] = test system: NCI/ADR-RES
[33] = test system: Hs-578T
[34] = test system: LOX IMVI
[35] = test system: MOLT-4
[36] = test system: HOP-62
[37] = test system: RXF 393
[38] = test system: NCI-H460
[39] = test system: TK-10
[40] = test system: SK-MEL-5
[41] = test system: HCT-15
[42] = test system: IGROV-1
[43] = test system: HCC 2998
[44] = test system: PC-3
[45] = test system: SF-539
[46] = test system: UACC-257
[47] = test system: SNB-75
[48] = test system: Malme-3M
[49] = test system: COLO 205
[50] = test system: SN12C
[51] = test system: SNB-19
[52] = test system: MDA-N

In the case of `CCOc1cc(/C=C2/C(C)=NN(c3cccc(Cl)c3)/C2=N/c2nc3ccccc3s2)ccc1O`, the GI50 [1] is reported as 19.4 µM (inactive), the GI50 [2] is reported as 21.1 µM (inactive) and the GI50 [3] is reported as 23.2 µM (inactive). The GI50 [4] was 30.4 µM (inactive), the GI50 [5] was 34.6 µM (inactive) and the GI50 [6] was 34.7 µM (inactive). For the same molecule, the GI50 [7] was 41.2 µM (inactive), the GI50 [8] was 23 µM (inactive) and the GI50 [9] was 28.5 µM (inactive). The GI50 [10] was 27.9 µM (inactive), the GI50 [11] was 46.1 µM (inactive) and the GI50 [12] was 24.2 µM (inactive). The GI50 [13] was 20 µM (inactive), the GI50 [14] was 24.9 µM (inactive) and the GI50 [15] was 33.2 µM (inactive). The GI50 [16] was 28.2 µM (inactive), the GI50 [17] was 24.3 µM (inactive) and the GI50 [18] was 24.2 µM (inactive). For the same molecule, the GI50 [19] was 38.4 µM (inactive), the GI50 [20] was 98.9 µM (inactive) and the GI50 [21] was 3.3 µM (inactive). The GI50 [22] was 40.4 µM (inactive), the GI50 [23] was 23.7 µM (inactive) and the GI50 [24] was 24.8 µM (inactive). The GI50 [25] was 38.3 µM (inactive), the GI50 [26] was 19.4 µM (inactive) and the GI50 [27] was 24.7 µM (inactive). For the same molecule, the GI50 [28] was 32.1 µM (inactive), the GI50 [29] was 38.6 µM (inactive) and the GI50 [30] was 20.3 µM (inactive). The GI50 [31] was 21.9 µM (inactive), the GI50 [32] was 20.5 µM (inactive) and the GI50 [33] was 29.7 µM (inactive). The GI50 [34] was 35.9 µM (inactive), the GI50 [35] was 32.7 µM (inactive) and the GI50 [36] was 23.2 µM (inactive). For the same molecule, the GI50 [37] was 38.6 µM (inactive), the GI50 [38] was 25.5 µM (inactive) and the GI50 [39] was 36.9 µM (inactive). The GI50 [40] was 17.8 µM (inactive), the GI50 [41] was 21.8 µM and the GI50 [42] was 29.6 µM (inactive). For the same molecule, the GI50 [43] was 14.3 µM (inactive), the GI50 [44] was 19.8 µM (inactive) and the GI50 [45] was 24.5 µM (inactive). The GI50 [46] was 23.7 µM (inactive) and the GI50 [47] was 34.8 µM (inactive).
In the case of `NS(=O)(=O)c1ccc(/C=C/c2cccc(O)c2)cc1`, the GI50 [1] is reported as 20.4 µM (inactive), the GI50 [2] is reported as 25.4 µM (inactive) and the GI50 [5] is reported as 38.6 µM (inactive). For the same molecule, the GI50 [6] was 74.5 µM (inactive), the GI50 [8] was 38.4 µM (inactive) and the GI50 [9] was 38.9 µM (inactive). The GI50 [11] was 47.8 µM (inactive), the GI50 [48] was 75.3 µM (inactive) and the GI50 [12] was 59.6 µM (inactive). For the same molecule, the GI50 [13] was 25.9 µM (inactive), the GI50 [14] was 55.6 µM (inactive) and the GI50 [18] was 35.9 µM (inactive). The GI50 [19] was 55.1 µM (inactive), the GI50 [20] was > 100 µM (inactive) and the GI50 [49] was 20 µM (inactive). For the same molecule, the GI50 [24] was 46.2 µM (inactive), the GI50 [27] was 38 µM (inactive) and the GI50 [50] was 50.1 µM (inactive). The GI50 [28] was > 100 µM (inactive), the GI50 [29] was 25.6 µM (inactive) and the GI50 [32] was 32.9 µM (inactive). The GI50 [36] was > 100 µM (inactive), the GI50 [37] was > 100 µM (inactive) and the GI50 [51] was 76.4 µM (inactive). For the same molecule, the GI50 [38] was 27.2 µM (inactive), the GI50 [39] was 28.7 µM (inactive) and the GI50 [40] was 22.2 µM (inactive). The GI50 [52] was 36.5 µM (inactive), the GI50 [43] was 77.4 µM (inactive) and the GI50 [44] was 36.7 µM (inactive). For the same molecule, the GI50 [46] was 69.5 µM (inactive) and the GI50 [47] was 46.8 µM (inactive).
